Like-named read-outs stand apart in the source and are kept apart here.
Experiments:
Acute toxicity = conditions: mouse, in vivo; oral; mice weighing 18 to 22 g
Protocol: The acute toxicity of the pyrazolo[1,5-c]quinazoline derivatives of the general formula I were determined on mice weighing 18 to 22 g. The compounds were administered orally.

acetic acid writhing = experiment: Acetic acid writhing test (analgesic activity); conditions: for ED50: Mus musculus, read-out: ED50 p.o.
Protocol: The analgesic activity was studied by means of the acetic acid writhing test on mice. After the intraperitoneal administration of 0.4 ml of 0.5 percent acetic acid, the writhing responses were counted between the 5 and 10 minutes. The writhing number was calculated as the percentage of the control value. The compounds tested were orally administered to the animals 1 hour prior to the treatment with acetic acid. […] Paracetamole [p-hydroxyacetanilide] and phenylbutazon [4-butyl-1,2-diphenylpyrazolidine-3,5-dione] were used as reference substance.

small intestine = experiment: Antiperistaltic effect (carbon suspension, small intestine); assay type: in vivo, mice; conditions: for ED50: Mus musculus, read-out: ED50 p.o.
Protocol: The antiperistaltic effect of the compounds of the invention was examined on groups of mice consisting of 10 animals. Each dosis of the compound to be tested was administered to one group, orally, 60 minutes prior to the administration of a 10 percent carbon suspension. 20 minutes after the administration of the carbon suspension, the animals were sacrificed and the length of the entire small intestine as well as that of the small intestine filled with carbon were determined. The reference substance used was papaverine [1-(3,4-dimethoxybenzyl)-6,7-dimethoxyisoquinoline].

gastric acid secretion = assay type: in vivo, rats; conditions: for Inhibition of gastric acid secretion, percentage: rats
Excerpt: The influence of the compounds of the invention on the gastric acid secretion was studied on rats weighing 170 to 260 g according to Shay [Gastroenterology, 5, 43 (1945)].

in vivo = conditions: printed under the reference substance in Table III
[1] = antiperistaltic effect, oral, 60 minutes prior to 10 percent carbon suspension, mice

Compound CC(=O)Nc1cnn2c1-c1ccccc1N(C(C)=O)C2(C)C [Example 34] has an LD50 (Acute toxicity) of 2000 mg/kg, an ED50 (acetic acid writhing; po) of 25 mg/kg and a Therapeutic index (acetic acid writhing; analgesic activity test, p.o.) of 80. The ED50 (small intestine; po) was 60 mg/kg and the Therapeutic index (small intestine; antiperistaltic effect, p.o.) was 33.
With COc1ccc(Cc2nccc3cc(OC)c(OC)cc23)cc1OC [papaverine, 1-(3,4-dimethoxybenzyl)-6,7-dimethoxyisoquinoline, reference compound] the ED50 (small intestine; po) was 180 mg/kg and the Therapeutic index (small intestine; antiperistaltic effect, p.o.) was 3.4.
For CN/C(=N/CCSCc1nc[nH]c1C)NC#N [cimetidine, 1-methyl-3-[2-(5-methylimidazol-4-yl-methylthio)ethyl]guanidine-2-carbonitrile, reference compound], the “Inhibition of gastric acid secretion, percentage” value (shortened to “Inhibition … percentage”) (gastric acid secretion; 50 mg/kg p.o.) was 45 percentage, the Therapeutic index (gastric acid secretion; rat, in vivo, po) was 9.4 and the LD50 (in vivo) was 470 mg/kg.
For O=[N+]([O-])c1cnn2cnc3ccccc3c12 [Example 1, 1-Nitropyrazolo[1,5-c]quinazoline], the LD50 (Acute toxicity) was 2000 mg/kg, the ED50 (acetic acid writhing; po) was 50 mg/kg and the Therapeutic index (acetic acid writhing; mouse, in vivo, po) was 40. It also gave an ED50 (small intestine; [1]) of 18 mg/kg and a Therapeutic index (small intestine; mouse, in vivo, po) of 111.
With Cc1nc2ccccc2c2c([N+](=O)[O-])cnn12 [Example 3, 1-Nitro-5-methylpyrazolo[1,5-c]quinazoline] the LD50 (Acute toxicity) was 2000 mg/kg, the ED50 (small intestine; [1]) was 400 mg/kg and the Therapeutic index (small intestine; mouse, in vivo, po) was 5.
With CCCN(CCC)C(=O)C(CCC(=O)O)NC(=O)c1ccccc1 (racemic) [proglumide, D,L-4-benzamido-N,N-dipropylglutaramic acid, reference compound] the “Inhibition … percentage” value (gastric acid secretion; 200 mg/kg p.o.) was “about 20 percentage”, the Therapeutic index (gastric acid secretion; gastric acid secretion, p.o.) was 11.4 and the LD50 (in vivo) was 2780 mg/kg.
For CCCCC1C(=O)N(c2ccccc2)N(c2ccccc2)C1=O [phenylbutazon, 4-butyl-1,2-diphenylpyrazolidine-3,5-dione, reference compound], the ED50 (acetic acid writhing; po) was 60 mg/kg and the Therapeutic index (acetic acid writhing; mouse, in vivo, po) was 16,6.
In the case of CC(=O)Nc1cnn2c(C)nc3ccccc3c12 [Example 36, 1-Acetamino-5-methylpyrazolo[1,5-c]quinazoline], the LD50 (Acute toxicity) is reported as 1800 mg/kg, the “Inhibition … percentage” value (gastric acid secretion; 50 mg/kg p.o.) is reported as 30 percentage and the “Inhibition … percentage” value (gastric acid secretion; 65 mg/kg p.o.) is reported as “about 50 percentage”. For the same compound, the “Inhibition … percentage” value (gastric acid secretion; 100 mg/kg p.o.) was 73 percentage, the Therapeutic index (gastric acid secretion; rat, in vivo, po) was 27.7 and the ED50 (small intestine; [1]) was 360 mg/kg. It also gave a Therapeutic index (small intestine; mouse, in vivo, po) of 5.
With CC(=O)Nc1ccc(O)cc1 [paracetamole, p-hydroxyacetanilide, reference compound] the ED50 (acetic acid writhing; po) was 180 mg/kg and the Therapeutic index (acetic acid writhing; analgesic activity test, p.o.) was 2,8.
For CC(=O)N1c2ccccc2-c2c([N+](=O)[O-])cnn2C1(C)C [Example 31, 1-Nitro-5,5-dimethyl-6-acetyl-5,6-dihydropyrazolo[1,5-c]quinazoline], the LD50 (Acute toxicity) was 2000 mg/kg, the ED50 (small intestine; [1]) was 50 mg/kg and the Therapeutic index (small intestine; mouse, in vivo, po) was 40.
With CC1(C)Nc2ccccc2-c2c([N+](=O)[O-])cnn21 [Example 9, 1-Nitro-5,5-dimethyl-5,6-dihydropyrazolo[1,5-c]quinazoline] the LD50 (Acute toxicity) was 2000 mg/kg, the ED50 (small intestine; [1]) was 400 mg/kg and the Therapeutic index (small intestine; mouse, in vivo, po) was 5.
With CC(=O)N1c2ccccc2-c2c([N+](=O)[O-])cnn2C1C (stereo not drawn) [Example 27, 1-Nitro-5-methyl-6-acetyl-5,6-dihydropyrazolo[1,5-c]quinazoline] the LD50 (Acute toxicity) was 2000 mg/kg, the “Inhibition … percentage” value (gastric acid secretion; 50 mg/kg p.o.) was 33 percentage and the “Inhibition … percentage” value (gastric acid secretion; 62 mg/kg p.o.) was “about 50 percentage”. The “Inhibition … percentage” value (gastric acid secretion; 100 mg/kg p.o.) was 82 percentage, the Therapeutic index (gastric acid secretion; rat, in vivo, po) was 32.3 and the ED50 (small intestine; [1]) was 50 mg/kg. The Therapeutic index (small intestine; mouse, in vivo, po) was 40.
For CC(=O)Nc1cnn2c1-c1ccccc1NC2(C)C [Example 33, 1-Acetamino-5,5-dimethyl-5,6-dihydropyrazolo[1,5-c]quinazoline], the LD50 (Acute toxicity) was 2000 mg/kg, the ED50 (small intestine; [1]) was 45 mg/kg and the Therapeutic index (small intestine; mouse, in vivo, po) was 45.
With CC(=O)Nc1cnn2cnc3ccccc3c12 [Example 5, 1-Acetaminopyrazolo[1,5-c]quinazoline] the LD50 (Acute toxicity) was 2000 mg/kg, the “Inhibition … percentage” value (gastric acid secretion; 70 mg/kg p.o.) was “about 50 percentage” and the “Inhibition … percentage” value (gastric acid secretion; 100 mg/kg p.o.) was 93 percentage. The Therapeutic index (gastric acid secretion; rat, in vivo, po) was 28.6, the ED50 (small intestine; [1]) was 400 mg/kg and the Therapeutic index (small intestine; mouse, in vivo, po) was 5.
CC(=O)Nc1cnn2c1-c1ccccc1N(C(C)=O)C2C (stereo not drawn) [Example 35, 1-Acetamino-5-methyl-6-acetyl-5,6-dihydropyrazolo[1,5-c]quinazoline] gave an LD50 (Acute toxicity) of 2000 mg/kg, an ED50 (small intestine; [1]) of 145 mg/kg and a Therapeutic index (small intestine; mouse, in vivo, po) of 14.
